Measurements published in publication PMC5583658, “6,7-dimethoxy-1,2,3,4-tetrahydro-isoquinoline-3-carboxylic acid attenuates heptatocellular carcinoma in rats with NMR-based metabolic perturbations” (Future Science OA, 2017).

Assays:
Assay type in all cases: in vivo, albino Wistar rats
[1] = system: diethylnitrosamine-induced hepatocarcinogenic rats; assay: ALT and AST in plasma of DEN-induced HCC rats; conditions: DEN+5-FU 10 mg/kg intraperitoneally, 15 days, mean ± SD, n = 6
Experimental: (§1) All animals were randomly divided into five groups of six animals each. Drugs were suspended in 0.25% CMC, subjected to 28 days’ treatment orally and divided as follows: Group I: 0.25% CMC (2 ml/kg), Group II: DEN (8 mg/kg, intraperitoneally), Group III: DEN+5-fluorouracil (5-FU, 10 mg/kg, intraperitoneally), Group IV: DEN+M1 (50 mg/kg, orally) and Group V: DEN+M1 (100 mg/kg, orally). The procedure to induce HCC was adopted from a paper by Song et al. where it is shown that DEN produces HCC at 8 mg/kg intraperitoneal injection for 28 days to albino Wistar rats. After initial 1 week of adaptive inhabitation, all rats of group II–V were administered with DEN (8 mg/kg, intraperitoneally) for 28 days. After 28 days, 5-FU and M1 were given for 15 days as mentioned above for group III–V. At the end of the experimental period, animals were sacrificed by cervical decapitation and livers were dissected out immediately, rinsed in ice cold saline and stored at -20°C for further studies. The serum was collected, processed and stored for further analysis.
(§2) Liver function biomarkers like aspartate aminotransferase (AST), alanine aminotransferase (ALT) were also measured in serum using commercially available kit from Ebra Diagonesis Pvt Ltd, Germany. The oxidative parameters like superoxide dismutase (SOD), thiobarbituric acid reactive substances (TBARS), protein carbonyl (PC), SOD [14], tissue catalase (CAT) and glutathione (GSH) levels were estimated in liver tissue in the similar experiment. The total protein content of each sample was measured using the Bradford reagent and bovine serum albumin was used as a standard. Conjugated bilirubin and biliverdin in liver were measured as per the following procedure stated earlier in the literature with slight modifications.

[2] = system: diethylnitrosamine-induced hepatocarcinogenic rats; assay: Histopathological studies of liver (hematoxylin and eosin); conditions: DEN+5-FU 10 mg/kg intraperitoneally; 40X
Experimental: as §1
Histopathological studies were also performed to find out the morphological changes of liver cells after M1 administration. Liver tissues from each group were assessed for their morphological changes using hematoxylin and eosin staining. The tissues were preserved in 10% formalin overnight. […]

[3] = system: diethylnitrosamine-induced hepatocarcinogenic rats; assay: Bilirubin and biliverdin in liver of DEN-induced HCC rats
Experimental: as §1, §2

[4] = system: diethylnitrosamine-induced hepatocarcinogenic rats; assay: 1H-NMR-based serum metabolic profiling; conditions: rat serum; DEN+5-FU 10 mg/kg intraperitoneally
Experimental: as §1
All serum samples were thawed at room temperature, 250 μl of serum was taken and mixed with 250 μl of 0.9% saline sodium-phosphate buffer of strength 50 mM, pH 7.4 prepared in D2O. Then, the samples were centrifuged at 10,000 rpm for 5 min to remove any precipitates before acquiring the NMR data. A total 400 μl of the supernatant sample was used in 5 mm NMR tubes (Wilmad Glass, USA) for data acquisition with a co-axial insert containing the known concentration of TSP (sodium salt of 3-trimethylsilyl-(2,2,3,3-d4)-propionic acid) i.e. 0.1% was used as external standard reference to aid metabolite quantification for NMR experiment. Deuterium oxide (D2O; as a co-solvent and to provide a deuterium field/frequency lock) and sodium salt of trimethylsilylpropionic acid-d4 (TSP) used for NMR experiments, were purchased from Sigma-Aldrich (RI, USA).
All NMR spectra were recorded at 298 K on Bruker Biospin Avance-III 800 MHz NMR spectrometer operating at proton frequency of 800.21 MHz, equipped with CryoProbe and an actively shielded gradient unit with a maximum gradient-strength output of […]. The raw NMR data were processed in Topspin-2.1 (Bruker NMR data Processing Software). For each serum sample, one-dimensional ^1H-NMR and diffusion edited ^1H NMR spectra were recorded using the Carr–Purcell–Meiboom–Gill (CPMG) pulse sequence (cpmgpr1d, standard Bruker pulse program) with pre-saturation of the water peak through irradiating it continuously during the recycle delay (RD) of 5 sec, and the bipolar pulse pair longitudinal eddy current delay (BPP-LED) sequence, respectively. Each CPMG spectrum consisted of the accumulation of 128 scans and lasted for approximately 15 minutes. To remove broad signals from triglycerides, proteins, cholesterols and phospholipids, a total spin–spin relaxation time of 60 ms (n = 300 and 2τ=[…]) with a line broadening factor of 0.3 Hz was applied. For diffusion edited (DE)^1H NMR pulse sequence, the square gradients of 70% of the maximum gradient strength (56 G/cm) and 2 ms duration (followed by a delay of 200 μs to allow for the decay of eddy currents) were used. Diffusion time of 120 ms was used to attenuate the signals from low molecular weight compounds without affecting the lipid signals. All the spectra were processed using Topspin-2.1 (Bruker NMR data Processing Software) using standard Fourier Transformation (FT) procedure following manual phase and baseline-correction. Prior to FT, each FID was zero-filled to 4096 data points and a sine-bell apodisation function was applied. After FT, the chemical shifts were referenced internally to methyl peak of L-lactate (at δ=1.33 ppm). All recorded spectra were visually inspected for acceptability and subjected to multivariate statistical analysis to identify the altered metabolic pattern. […]

[5] = system: diethylnitrosamine-induced hepatocarcinogenic rats; assay: Oxidative stress parameters (SOD, CAT, GSH, PC, MDA) in liver of DEN-induced HCC rats; conditions: DEN+5-FU 10 mg/kg intraperitoneally, 15 days, mean ± SD, n = 6
Experimental: as §1, §2

[6] = DEN+5-FU 10 mg/kg intraperitoneally, 15 days, mean ± SD, n = 6

For `O=c1[nH]cc(F)c(=O)[nH]1` [5-FU, 5-fluorouracil, reference compound], the ALT [1] was 68.36 ± 5.32 U/L, the AST [1] was 61.58 ± 4.17 U/L and the liver histopathology [2] was “less ruptured and denatured cells (RC and DC) than toxic control”. For the same molecule, the bilirubin level ([3]; 5-FU-treated rats, text value (toxic ∼60 ng)) was ~35 ng, the Bilirubin [3, 6] was 34.70 ± 2.12 ng/μg of protein and the Biliverdin [3, 6] was 18.39 ± 3.11 ng/μg of protein. For the same molecule, the “Variation with respect to DEN: Acac (chemical shift 2.28)” value [4] was “↑”, the “Variation with respect to DEN: Ace (chemical shift 1.92)” value [4] was “↓” and the “Variation with respect to DEN: Acet (chemical shift 2.23)” value [4] was “↑”. For the same molecule, the “Variation with respect to DEN: Ala (chemical shift 1.48)” value [4] was “↓”, the “Variation with respect to DEN: Betaine (chemical shift 3.265)” value [4] was “↓” and the “Variation with respect to DEN: Chol (chemical shift 3.22)” value [4] was “↓”. The “Variation with respect to DEN: Cr (chemical shift 3.03)” value [4] was “↑”, the “Variation with respect to DEN: Glucose (chemical shift 3.23–3.92, 4.63, 5.21)” value [4] was “↓” and the “Variation with respect to DEN: L1 (LDL) (chemical shift 0.83–0.87)” value [4] was “↓”. The “Variation with respect to DEN: L2 (VLDL) (chemical shift 0.87–0.90)” value [4] was “↑”, the “Variation with respect to DEN: L3 (LDL) (chemical shift 1.23–1.27)” value [4] was “↓” and the “Variation with respect to DEN: L4 (VLDL) (chemical shift 1.27–1.30)” value [4] was “↑”. The “Variation with respect to DEN: L6 (chemical shift 2.00)” value [4] was “↓”, the “Variation with respect to DEN: L8 (chemical shift 2.74)” value [4] was “↓” and the “Variation with respect to DEN: L9 (chemical shift 5.28)” value [4] was “↓”. The “Variation with respect to DEN: Lys (chemical shift 1.89)” value [4] was “↓”, the “Variation with respect to DEN: NAG (chemical shift 2.02)” value [4] was “↑” and the “Variation with respect to DEN: OAG (chemical shift 2.13)” value [4] was “↑”. For the same molecule, the “Variation with respect to DEN: Pyr (chemical shift 2.37)” value [4] was “↓”, the “Variation with respect to DEN: Tyr (chemical shift 6.89)” value [4] was “↓” and the CAT [5] was 9.30 ± 0.35 nM of H2O2/min/μg of protein. For the same molecule, the MDA [5] was 46.24 ± 0.26 nM/μg of protein, the PC [5] was 0.35 ± 0.07 μM/μg of protein and the “Reduced GSH” value [5] was 7.30 ± 0.39 μM/μg of protein. For the same molecule, the SOD [5] was 6.99 ± 0.43 U/μg of protein.
